# Test results reported in article PMC10317875, “PET imaging of PARP expression using ^68Ga-labelled inhibitors” (European Journal of Nuclear Medicine and Molecular Imaging, 2023).
# What was measured:
# [1] = Pharmacokinetics (blood clearance) in normal mice; type: in vivo; details: tail vein injection, blood radioactivity
# Method: The pharmacokinetic parameters of the three ^68Ga-labelled radiotracers were evaluated in normal mice. The three ^68Ga-labelled radiotracers were injected into mice via the tail veins at a dose of 1.48–2.96 MBq/mouse in approximately 200 μL. Blood samples were obtained via the tail vein using tared capillary tubes at 1, 3, 5, 10, 15, 30, 60, 120, and 180 min after radiotracer injection. The blood volume drawn was approximately 0.5–0.8 dispense capillary volumes at each time point. Dispense capillary tube was from Shanghai Great Wall Scientific Instruments Store (size: 0.5 × 100; diameter: 0.5 mm; length: 100 mm). The radioactivity was determined with a γ-counter and decay-corrected to the injection time. All samples were weighed. The radioactive CPM (counts per minute) by dividing by the mass of blood in the capillary are presented as %ID/g. Finally, the pharmacokinetic parameters were analysed by GraphPad Prism 9.0.
# [2] = system: SK-OV-3 and A549 cells; experiment: Cell uptake of radiotracers in SK-OV-3 and A549 cells; type: cell-based; details: 2 h incubation at 37 °C
# Method: SK-OV-3 and A549 cells were seeded in 6-well plates (500 × 10^3/well) for 24 h. Then, the cells were incubated separately with the three ^68Ga-labelled radiotracers (740 kBq/1 mL in each well) at 37 °C. To eliminate unbound ^68Ga-labelled radiotracers, the cells were rinsed three times with PBS (0.5 mL) 2 h after incubation. Cell suspensions were produced after adding pancreatin (0.5–0.8 mL). Finally, a γ-counter was used to measure the radioactivity. The radioactivity data are presented as CPM (counts per minute) with time-decay correction. Three replicate experiments were conducted.
# [3] = Partition coefficient log D7.4 (octanol/PBS); type: physicochemical; details: PBS (pH = 7.4)/octanol = 1/1
# Method: Log D7.4: Similarly, approximately 74–185 kBq of the ^68Ga-labelled radiotracer was combined with a solvent mixture (2 mL, PBS (pH = 7.4)/octanol = 1/1). The partition coefficient experiment was repeated, as mentioned previously.
# [4] = Plasma protein binding (ultrafiltration); type: in vitro ADME; details: mouse plasma
# Method: To evaluate the plasma protein binding of the ^68Ga-labelled radiotracers, mouse blood from the heart was centrifuged at 4000 g for 5 min. The upper layer of blood was transferred to an EP tube and stored overnight in a refrigerator at 4 °C.
# One hundred microliters of the ^68Ga-labelled radiotracer solution (0.74–1.48 MBq) was incubated with 100 μL of the above plasma. After 0.5, 1, and 2 h of incubation, the mixture was centrifuged at 15000 g for 10 min in a 30 K ultrafiltration tube. The radioactivity of the membrane and eluate was detected with a γ-counter. The radioactivity from the membrane, representing the tracer bound to plasma proteins, was estimated as a proportion of the total radioactivity of the sample. The experiment was repeated in triplicate.
# [5] = Partition coefficient log P (octanol/ultrapure water); type: physicochemical; details: ultrapure water/octanol = 1/1
# Method: Log P: Generally, approximately 74–185 kBq of the ^68Ga-labelled radiotracer was combined with a solvent mixture (2 mL, ultrapure water/octanol = 1/1). After 5 min of agitation in a vortex mixer, the aqueous and nonaqueous phases were separated by centrifugation at 15000 g. The radioactivity of each sampling layer (100 μL) was measured using a γ-counter. The trial was conducted five times.
# [6] = system: SK-OV-3 models; experiment: MicroPET/CT imaging of SK-OV-3 models; type: in vivo, BALB/c nude mice
# Method: (§1) Female BALB/c nude mice (6–8 weeks old) were utilized in all tumor-bearing mouse experiments. Twelve BALB/c nude mice were subcutaneously injected with SK-OV-3 cells (1 × 10^6) into the right armpit. The mice were used for investigation after the tumor diameter reached approximately 0.5–1.1 cm.
# Six SK-OV-3 models were separated into two groups (^68Ga-labelled radiotracers and blocked groups). The ^68Ga-labelled radiotracers (2.96–5.55 MBq in 200 μL of saline) were administered via tail vein injection. Approximately 5 min before PET acquisition, the mice were anaesthetized by inhalation of a mixture of isoflurane and positioned in the scanner. The PET data for each mouse were acquired at 0.5, 1, and 2 h after injection. In the blocking studies, ^68 Ga-DOTA-Olaparib was injected with a 500-fold excess of Olaparib (562.68 μg) in 200 μL of a solution consisting of 75% saline and 25% DMSO (dimethyl sulfoxide). PET acquisition was performed at 1 h postinjection. The target tissue’s radioactivity content was measured, and the tissue-associated activity was expressed as %ID/g.
# [7] = system: SK-OV-3 models; experiment: Ex vivo biodistribution in SK-OV-3 models; parameters: species or system BALB/c nude mice
# Method: as §1
# (§2) Biodistribution experiments were conducted with SK-OV-3 models (10–12 weeks old, n = 3). ^68Ga-DOTA-Olaparib (1.85–5.55 MBq of ^68Ga-DOTA-Olaparib in 200 μL of saline) was administered via the lateral tail vein. After allowing the medication to circulate for varying amounts of time (0.5, 1, and 2 h), three mice were sacrificed. The tissue radioactivity (tumor, blood, muscle, bone, liver, spleen, kidney, heart, lung, bladder, brain, small intestine, and stomach) was measured using a γ-counter. The organs were weighed, and the γ-counter activity readings were decay-corrected to the injection time. Finally, the associated tissue activity was calculated by GraphPad Prism 9.0, and the data are expressed as %ID/g.
# To verify specific tumor accumulation, ^68Ga-DOTA-Olaparib was administered with a 500-fold excess of Olaparib (530.94 μg) in 200 μL of a solution containing 75% saline and 25% DMSO via the lateral tail vein. After 1 h, mice (n = 3) were sacrificed to collect the tissues of interest. The associated tissue activity was measured as described above.
# [8] = system: A549 models; experiment: Ex vivo biodistribution in A549 models; parameters: species or system mice; details: 1 h
# Method: as §2, with “To further compare and validate the specific uptake of ^68Ga-DOTA-Olaparib in different tumor models, biodistribution” for “Biodistribution”, “A549” for “SK-OV-3”, “(1.22–5.59” for “(1.85–5.55”
# [9] = Ex vivo biodistribution in normal mice; details: 5-180 min after injection
# Method: Normal mice (6–8 weeks old, n = 5) were utilized in the biodistribution experiments. ^68Ga-DOTA-Olaparib (0.74–2.96 MBq of 200 μL of saline) was administered via the lateral tail vein. The medication was allowed to circulate for 5, 15, 30, 60, 120, and 180 min before the mice were sacrificed. The radioactivity in the target tissues (blood, muscle, bone, liver, spleen, kidney, heart, lung, bladder, brain, small intestine, and stomach) was measured using a γ-counter. The organs were weighed, and the γ-counter activity readings were decay-corrected to the injection time. The corresponding tissue activity was then assessed using GraphPad Prism 9.0, and the data are presented as %ID/g using the following formula: [(activity in the target organ/target organ quality)/injected dose] * 100%.
# [10] = molecular target: T1, PARP-1 protein (human, Recombinant (His Tag)) (Homo sapiens, UniProt P09874); experiment: Surface plasmon resonance (SPR) binding assay; details: SPR imaging
# T1 construct: His tag; purchased Sino Biological 11,040-H08B
# Method: Furthermore, the compound Olaparib was used as a reference for affinity. The surface plasmon resonance binding assays were conducted according to the previous protocol.
# [11] = system: PARP-1 in SK-OV-3 cells; experiment: In vitro cell localization, FL-Olaparib confocal fluorescence with competition; details: FL-Olaparib 250 nM, presaturation with 1000-fold molar excess of competitor
SMILES,clear-phase half-life (t1/2β) [1],distribution-phase half-life (t1/2α) [1],SK-OV-3/A549 uptake ratio [2],log Doctanol/PBS [3],plasma protein binding ([4]; 0.5 h),plasma protein binding ([4]; 1 h),plasma protein binding ([4]; 2 h),log Poctanol/water [5],tumor uptake (PET/CT) ([6]; 0.5 h after injection),tumor uptake (PET/CT) ([6]; 1 h after injection),tumor uptake (PET/CT) ([6]; 2 h after injection),further results
O=C([O-])CN1CCN(CC(=O)O)CCN(CC(=O)[O-])CCN(CC(=O)NCC(=O)NCC(=O)NCC(=O)N2CCN(C(=O)c3cc(Cc4n[nH]c(=O)c5ccccc45)ccc3F)CC2)CC1.[68Ga+3] [68Ga-DOTA-(Gly)3-Olaparib],23.19 min,0.40 min,1.63 ± 0.13,-1.75 ± 0.11,39.32 ± 1.89%,43.08 ± 7.20%,43.56 ± 5.24%,-1.62 ± 0.075,0.96 ± 0.13 %ID/g,0.57 ± 0.068 %ID/g,0.91 ± 0.11 %ID/g,
O=C([O-])CN1CCN(CC(=O)O)CCN(CC(=O)[O-])CCN(CC(=O)NCCCC(=O)N2CCN(C(=O)c3cc(Cc4n[nH]c(=O)c5ccccc45)ccc3F)CC2)CC1.[68Ga+3] [68Ga-DOTA-GABA-Olaparib],47.69 min,0.31 min,2.43 ± 0.45,-2.49 ± 0.15,59.62 ± 2.40%,83.84 ± 1.42%,58.13 ± 6.63%,-2.16 ± 0.12,0.96 ± 0.14 %ID/g,0.56 ± 0.12 %ID/g,0.98 ± 0.53 %ID/g,
O=C([O-])CN1CCN(CC(=O)O)CCN(CC(=O)[O-])CCN(CC(=O)N2CCN(C(=O)c3cc(Cc4n[nH]c(=O)c5ccccc45)ccc3F)CC2)CC1.[68Ga+3] [68Ga-DOTA-Olaparib],22.82 min,1.97 min,1.47 ± 0.019,-2.56 ± 0.026,20.59 ± 1.23%,32.85 ± 4.11%,24.04 ± 0.80%,-2.33 ± 0.028,,~2.37 ± 0.37 %ID/g,~2.27 ± 0.32 %ID/g,"tumor/intestine ratio ([7]; 1 h after administration): 2.05 ± 0.072; tumor/stomach ratio ([7]; 1 h after administration): 2.97 ± 0.73; T/M ratio (ex vivo biodistribution) ([7]; 2 h): 12.64 ± 1.32; tumor-to-bone ratio (ex vivo biodistribution) ([7]; 2 h): 3.85 ± 0.68; tumor-to-brain ratio (ex vivo biodistribution) ([7]; 2 h): 15.63 ± 1.58; bladder accumulation ([7]; SK-OV-3 models, 0.5 h): 5.80 ± 1.47 %ID/g; kidneys accumulation ([7]; SK-OV-3 models, 0.5 h): 3.11 ± 0.29 %ID/g; bladder accumulation ([7]; SK-OV-3 models, 1 h): 2.57 ± 0.72 %ID/g; kidneys accumulation ([7]; SK-OV-3 models, 1 h): 4.24 ± 0.22 %ID/g; tumor radioactivity (ex vivo biodistribution), blocked ([7]; SK-OV-3 models, 1 h, 500-fold excess of Olaparib): 0.25 ± 0.027 %ID/g; tumor radioactivity (ex vivo biodistribution) ([7]; SK-OV-3 models, 1 h postinjection): 1.26 ± 0.17 %ID/g; bladder accumulation ([7]; SK-OV-3 models, 2 h): 0.064 ± 0.025 %ID/g; kidneys accumulation ([7]; SK-OV-3 models, 2 h): 2.51 ± 0.33 %ID/g; tumor uptake (ex vivo biodistribution) [8]: 0.43 ± 0.10 %ID/g; order of clearance from the body [9]: kidney-bladder-urine; T/M (tumor-to-muscle) ratio (PET/CT) ([6]; 0.5 h): approximately 3.54 ± 0.74; T/M (tumor-to-muscle) ratio (PET/CT), blocked ([6]; 1 h, blocked with a 500-fold excess of Olaparib): 1.79 ± 0.26; T/M (tumor-to-muscle) ratio (PET/CT) ([6]; 1 h, unblocked): ~4.07 ± 0.59; T/M (tumor-to-muscle) ratio (PET/CT) ([6]; 2 h): ~7.31 ± 0.51"
O=C(O)CN1CCN(CC(=O)O)CCN(CC(=O)N2CCN(C(=O)c3cc(Cc4n[nH]c(=O)c5ccccc45)ccc3F)CC2)CCN(CC(=O)O)CC1 [DOTA-Olaparib],,,,,,,,,,,,Kd [10]: 14.5 nM; effect on FL-Olaparib fluorescence signals [11]: substantial reduction in fluorescence signals
